Assay [1] concerns the target T1, P70S6K (T412E mutant, Millipore) (Homo sapiens, UniProt P23443, T412E).
T1 construct: purchased Millipore
The experiment in a line: P70S6K enzyme assay. The assay is classed as biochemical. As to conditions: enzyme inhibition; 24 μM ATP, 90 min at 25° C., Caliper mobility shift. How it is done:
(§1) The IC50 values reported for the compounds in the Experimental section were derived from the following protocol for the p70S6K and AKT enzyme assays.
P70S6K inhibitor compounds were diluted and plated in 96 well plates. A reaction mixture including the following components was then added to the compound plate to initiate the enzyme reaction; P70S6K (3 nM, T412E mutant, Millipore) was mixed with 24 μM ATP in an assay buffer containing 100 mM Hepes (pH 7.5), 5 mM MgCl2, 1 mM DTT, 0.015% Brij and 1 μM of the substrate peptide FITC-AHA-AKRRRLSSLRA-OH (derived from the S6 ribosomal protein sequence, FITC=fluorescein isothiocyanate, AHA=6-aminohexanoic acid). The reaction was incubated for 90 min at 25° C., before the addition of 10 mM EDTA to stop the reaction. The proportion of substrate and product (phosphorylated) peptide was analysed on a Caliper Life Sciences Lab Chip 3000, using a pressure of −1.4 psi, and upstream and downstream voltages of −3000 and −700 respectively. Product peaks were resolved before substrate peaks on the resulting chromatograms.

In another assay the target is T2, His-AKT (Full Length) (Homo sapiens, UniProt P31749).
T2 construct: 0.1 ng/μl His-AKT (Full Length); His; purchased Invitrogen P2999
T2 sequence (P31749 whole entry): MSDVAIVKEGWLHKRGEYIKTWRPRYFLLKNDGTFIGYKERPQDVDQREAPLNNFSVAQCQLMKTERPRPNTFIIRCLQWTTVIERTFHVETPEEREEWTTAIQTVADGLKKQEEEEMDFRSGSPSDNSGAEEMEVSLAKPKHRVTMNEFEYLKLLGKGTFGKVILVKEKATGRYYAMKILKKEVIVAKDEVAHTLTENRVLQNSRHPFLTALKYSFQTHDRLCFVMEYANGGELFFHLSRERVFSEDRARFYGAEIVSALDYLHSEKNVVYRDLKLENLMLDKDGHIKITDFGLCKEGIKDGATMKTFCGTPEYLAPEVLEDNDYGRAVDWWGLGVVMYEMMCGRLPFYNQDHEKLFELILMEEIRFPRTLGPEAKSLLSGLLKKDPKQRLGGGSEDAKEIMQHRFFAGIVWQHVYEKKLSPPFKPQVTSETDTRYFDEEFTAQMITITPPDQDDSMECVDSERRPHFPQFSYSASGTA
The experiment in a line: AKT enzyme assay. Type of assay: biochemical. Conditions: enzyme inhibition; 160 uM ATP, 90 min at 25° C., Caliper mobility shift. As to the method:
as §1
A TTP Mosquito liquid handling instrument was used to place 125 nl of the appropriate concentration of inhibitor in 100% DMSO (for a dose response curve calculation) into each well of a 384-well plate. To this reaction components were added to a final volume of 12.5 μl: • 0.1 ng/μl His-AKT (Full Length), (Invitrogen, Part # P2999, Lot # 641228C). • 160 uM ATP (Fluke, 02055) • 1 mM DTT (Sigma, D0632) • 1 mM MgCl2 (Sigma, M1028) • 1 μM substrate peptide (sequence FITC-AHA-GRPRTSSFAEG-NH2), synthesized by Tufts Peptide Synthesis service. • 100 mM HEPES pH 7.5 (Calbiochem, 391338) • 0.015% Brij-35 (Sigma, B4184)
The reaction was incubated for 90 min at 25° C., and then stopped by the addition of 70 μl of Stop buffer (100 mM HEPES pH 7.5, 0.015% Brij-35, 10 mM EDTA (Sigma, E7889)).
The plate was read on a Caliper LC 3000 in an Off-Chip mobility shift assay format, using the following parameters for a 12-sipper chip: screening pressure −2.3 psi, upstream voltage −500, and downstream voltage −3000. These conditions caused unphosphorylated substrate and phosphorylated product peptide to resolve as separate peaks allowing direct measurement of percentage of conversion of substrate to product. The percent conversion was plotted against concentration of inhibitor to produce a sigmoidal dose response curve, from which an IC50 was calculated.

SMILES strings stand for the structures.

T1 sequence (P23443 whole entry T412E): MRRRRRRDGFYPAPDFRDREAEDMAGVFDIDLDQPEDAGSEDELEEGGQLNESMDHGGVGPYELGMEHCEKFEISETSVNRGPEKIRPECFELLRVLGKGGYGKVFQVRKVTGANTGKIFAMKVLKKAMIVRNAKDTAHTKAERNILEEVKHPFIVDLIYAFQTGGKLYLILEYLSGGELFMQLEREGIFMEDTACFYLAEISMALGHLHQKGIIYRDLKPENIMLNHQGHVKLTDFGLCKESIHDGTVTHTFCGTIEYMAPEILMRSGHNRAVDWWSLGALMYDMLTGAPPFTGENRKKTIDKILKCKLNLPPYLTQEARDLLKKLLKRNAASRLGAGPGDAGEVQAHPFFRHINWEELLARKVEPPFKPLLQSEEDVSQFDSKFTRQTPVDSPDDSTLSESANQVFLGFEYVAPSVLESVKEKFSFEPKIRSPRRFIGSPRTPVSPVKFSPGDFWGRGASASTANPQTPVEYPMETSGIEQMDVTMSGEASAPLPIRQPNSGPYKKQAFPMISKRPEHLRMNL

In the case of `Cc1cccc(-c2cn(CCN(C)C)c(C3CCN(c4ncnc5c4NC(=O)CN5)CC3)n2)c1` [Compound A54, 4-{4-[4-(3-MethylPhenyl)-1-(2-dimethylamin-1-yl-ethyl)-1H-imidazol-2-yl]-piperidin-1-yl}-7,8-dihydro-5H-pteridin-6-one], the results for the concentration for half-maximal inhibition (IC50) (in assay [1]; at His-AKT (Full Length)) were 26 to 100 nM and 101 to 500 nM, respectively.
Consider `CN(C)CCn1cc(-c2ccc(F)c(Cl)c2)nc1C1CCN(c2ncnc3c2OCCN3)CC1` [Compound A9, (2-{4-(3-Chloro-4-fluoro-phenyl)-2-[1-(7,8-dihydro-6H-pyrimido[5,4-b][1,4]oxazin-4-yl)-piperidin-4-yl]-imidazol-1-yl}-ethyl)-dimethylamine], for which the IC50 (in assay [1]; on His-AKT (Full Length)) was under 25 nM throughout.
For the compound `O=C1CNc2ncnc(N3CCC(c4nc(-c5ccc(F)c(C(F)(F)F)c5)cn4CCN4CCC4)CC3)c2N1` [Compound A40, 4-{4-[4-(4-fluoro-3-trifluoromethyl-phenyl)-1-(2-azetidin-1-yl-ethyl)-1H-imidazol-2-yl]-piperidin-1-yl}-7,8-dihydro-5H-pteridin-6-one], the IC50 (in assay [1]; at His-AKT (Full Length)) was under 25 nM each time.
`Fc1ccc(-c2cn(CCN3CCC3)c(C3CCN(c4ncnc5c4CCN5)CC3)n2)cc1C(F)(F)F` [Compound A28, 4-{4-[1-(2-Azetidin-1-yl-ethyl)-4-(4-fluoro-3-trifluoromethyl-phenyl)-1H-imidazol-2-yl]-piperidin-1-yl}-6,7-dihydro-5H-pyrrolo[2,3-d]pyrimidine]: the IC50 (in assay [1]; at His-AKT (Full Length)) was under 25 nM throughout.
Regarding `Cc1cc(-c2cn(CCN3CCC3)c(C3CCN(c4ncnc5c4CCC5)CC3)n2)ccc1F` [Compound A21, 4-{4-[1-(2-Azetidin-1-yl-ethyl)-4-(4-fluoro-3-methyl-phenyl)-1H-imidazol-2-yl]-piperidin-1-yl}-6,7-dihydro-5H-cyclopentapyrimidine], the IC50 (in assay [1]; on His-AKT (Full Length)) was under 25 nM in each case.
As to `COc1cccc(-c2cn(CCN3CCCC3)c(C3CCN(c4ncnc5c4NC(=O)CN5)CC3)n2)c1` [Compound A60, 4-{4-[4-(3-MethoxyPhenyl)-1-(2-pyrrolidin-1-yl-ethyl)-1H-imidazol-2-yl]-piperidin-1-yl}-7,8-dihydro-5H-pteridin-6-one], the IC50 (in assay [1]; at His-AKT (Full Length)) was 101 to 500 nM each time.
Take `COc1cc(-c2cn(CCN(C)C)c(C3CCN(c4ncnc5c4CCC5)CC3)n2)ccc1F` [Compound A16, {2-[2-[1-(6,7-Dihydro-5H-cyclopentapyrimidin-4-yl)-piperidin-4-yl]-4-(4-fluoro-3-methoxy-phenyl)-imidazol-1-yl]-ethyl}-dimethylamine]: the IC50 in assay [1] was under 25 nM; at His-AKT (Full Length) it was 26 to 100 nM.
On the same counts, the results for `O=C1CNc2ncnc(N3CCC(c4nc(-c5ccc(F)cc5)cn4CCN4CCCC4)CC3)c2N1` [Compound A59, 4-{4-[4-(4-FluoroPhenyl)-1-(2-pyrrolidin-1-yl-ethyl)-1H-imidazol-2-yl]-piperidin-1-yl}-7,8-dihydro-5H-pteridin-6-one] are 26 to 100 nM and 101 to 500 nM.
With `COc1cccc(-c2cn(CCN(C)C)c(C3CCN(c4ncnc5c4NC(=O)CN5)CC3)n2)c1` [Compound A51, 4-{4-[4-(3-Methoxy-phenyl)-1-(2-dimethylamin-1-yl-ethyl)-1H-imidazol-2-yl]-piperidin-1-yl}-7,8-dihydro-5H-pteridin-6-one], the IC50 fell in the range of 101 to 500 nM in assay [1] and 501 to 1000 nM at His-AKT (Full Length).
Consider `CN(C)CCn1cc(-c2ccc(F)c(C(F)(F)F)c2)nc1C1CCN(c2ncnc3c2OCCN3)CC1` [Compound A6, {2-[2-[1-(7,8-Dihydro-6H-pyrimido[5,4-b][1,4]oxazin-4-yl)-piperidin-4-yl]-4-(4-fluoro-3-trifluoromethyl-phenyl)-imidazol-1-yl]-ethyl}-dimethylamine], for which the IC50 (in assay [1]; at His-AKT (Full Length)) was under 25 nM in each case.
`Fc1ccc(-c2cn(CCN3CCC3)c(C3CCN(c4ncnc5c4CCCN5)CC3)n2)cc1Cl` [Compound A38, 4-{4-[1-(2-Azetidin-1-yl-ethyl)-4-(3-chloro-4-fluoro-phenyl)-1H-imidazol-2-yl]-piperidin-1-yl}-5,6,7,8-tetrahydro-pyrido[2,3-d]pyrimidine]: the IC50 (in assay [1]; on His-AKT (Full Length)) was under 25 nM throughout.
Take `Cc1cc(-c2cn(CCN(C)C)c(C3CCN(c4ncnc5c4CCC5)CC3)n2)ccc1F` [Compound A15, {2-[2-[1-(6,7-Dihydro-5H-cyclopentapyrimidin-4-yl)-piperidin-4-yl]-4-(4-fluoro-3-methyl-phenyl)-imidazol-1-yl]-ethyl}-dimethylamine]: the IC50 is under 25 nM in assay [1] and 101 to 500 nM on His-AKT (Full Length).
On the same counts, the results for `Cc1cc(-c2cn(CCN3CCC3)c(C3CCN(c4ncnc5c4OCCN5)CC3)n2)ccc1F` [Compound A11, 4-{4-[1-(2-Azetidin-1-yl-ethyl)-4-(4-fluoro-3-methyl-phenyl)-1H-imidazol-2-yl]-piperidin-1-yl}-7,8-dihydro-6H-pyrimido[5,4-b][1,4]oxazine] are under 25 nM and under 25 nM.
Consider `O=C1CNc2ncnc(N3CCC(c4nc(-c5ccnc(C(F)(F)F)c5)cn4CCN4CCC4)CC3)c2N1` [Compound A43, 4-{4-[1-(2-azetidin-1-yl-ethyl)-4-(2-trifluoromethyl-pyridin-4-yl)-1H-imidazol-2-yl]-piperidin-1-yl}-7,8-dihydro-5H-pteridin-6-one], for which the IC50 was under 25 nM in assay [1] and 26 to 100 nM on His-AKT (Full Length).
For `CN(C)CCn1cc(-c2ccnc(C(F)(F)F)c2)nc1C1CCN(c2ncnc3c2CCN3)CC1` [Compound A27, {2-[2-[1-(6,7-Dihydro-5H-pyrrolo[2,3-d]pyrimidin-4-yl)-piperidin-4-yl]-4-(2-trifluoromethyl-pyridin-4-yl)-imidazol-1-yl]-ethyl}-dimethylamine], the IC50 in assay [1] is under 25 nM; on His-AKT (Full Length), 26 to 100 nM.
`Fc1ccc(-c2cn(CCN3CCC3)c(C3CCN(c4ncnc5c4CCN5)CC3)n2)cc1Cl` [Compound A31, 4-{4-[1-(2-Azetidin-1-yl-ethyl)-4-(3-chloro-4-fluoro-phenyl)-1H-imidazol-2-yl]-piperidin-1-yl}-6,7-dihydro-5H-pyrrolo[2,3-d]pyrimidine]: the IC50 (in assay [1]; on His-AKT (Full Length)) was under 25 nM each time.
Regarding `O=C1CNc2ncnc(N3CCC(c4nc(-c5cccc(Cl)c5)cn4CCN4CCCC4)CC3)c2N1` [Compound A57, 4-{4-[4-(3-ChloroPhenyl)-1-(2-pyrrolidin-1-yl-ethyl)-1H-imidazol-2-yl]-piperidin-1-yl}-7,8-dihydro-5H-pteridin-6-one], the IC50 (in assay [1]; at His-AKT (Full Length)) was 26 to 100 nM each time.
Regarding `Fc1ccc(-c2cn(CCN3CCC3)c(C3CCN(c4ncnc5c4OCCN5)CC3)n2)cc1Cl` [Compound A13, 4-{4-[1-(2-Azetidin-1-yl-ethyl)-4-(3-chloro-4-fluoro-phenyl)-1H-imidazol-2-yl]-piperidin-1-yl}-7,8-dihydro-6H-pyrimido[5,4-b][1,4]oxazine], the IC50 (in assay [1]; at His-AKT (Full Length)) was under 25 nM in each case.
Take `CN(C)CCn1cc(-c2ccnc(C(F)(F)F)c2)nc1C1CCN(c2ncnc3c2CCCN3)CC1` [Compound A36, Dimethyl-{2-[2-[1-(5,6,7,8-tetrahydro-pyrido[2,3-d]pyrimidin-4-yl)-piperidin-4-yl]-4-(2-trifluoromethyl-pyridin-4-yl)-imidazol-1-yl]-ethyl}-amine]: the IC50 (in assay [1]; on His-AKT (Full Length)) was under 25 nM in each case.
As to `Fc1ccc(-c2cn(CCN3CCC3)c(C3CCN(c4ncnc5c4CCCN5)CC3)n2)cc1C(F)(F)F` [Compound A37, 4-{4-[1-(2-Azetidin-1-yl-ethyl)-4-(4-fluoro-3-trifluoromethyl-phenyl)-1H-imidazol-2-yl]-piperidin-1-yl}-5,6,7,8-tetrahydro-pyrido[2,3-d]pyrimidine], the IC50 (in assay [1]; on His-AKT (Full Length)) was under 25 nM each time.
`FC(F)(F)c1cc(-c2cn(CCN3CCC3)c(C3CCN(c4ncnc5c4CCN5)CC3)n2)ccn1` [Compound A30, 4-{4-[1-(2-Azetidin-1-yl-ethyl)-4-(2-trifluoromethyl-pyridin-4-yl)-1H-imidazol-2-yl]-piperidin-1-yl}-6,7-dihydro-5H-pyrrolo[2,3-d]pyrimidine]: the IC50 (in assay [1]; at His-AKT (Full Length)) was under 25 nM each time.

The record behind these values is US9315517B2, “Imidazol-piperidinyl derivatives as modulators of kinase activity” (Merck Patent GmbH, priority 2012, dated 2016).
